Legend:
[1] = tested on: MDA-MB-436; assay: CTG experiment for cell viability (CellTiter-Glo, 96-well plate, 7 days); format: cell-based; conditions: MDA-MB-436 cells, 7 days culture with compound
Procedure, shortened: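 MDA-MB-436 cells in DMEM were plated in 96-well format, treated with compounds, and cultured 7 days at 37°C. After removing the medium, cells were given PBS plus CellTiter-Glo reagent, incubated 10 min at room temperature, and luminescence was read. Curves were fitted as for the enzyme assay.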

[2] = target: T1, Recombinant human His6-USP1/His6-UAF1 complex protein (Homo sapiens, UniProt O94782); assay: In vitro inhibitory activity against USP1 (Ubiquitin Rhodamine 110 fluorescence detection, 384-well plate); format: biochemical; conditions: Ub-Rho substrate, 1 hour pre-incubation, read after 30 minutes
T1 construct: His6; purchased R&D E-568-050
Procedure, shortened: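 Fluorescence assay measuring inhibition of recombinant human His6-USP1/His6-UAF1 complex with Ubiquitin-Rhodamine 110 substrate. Compounds held as 50 mM stocks in 100% DMSO and dispensed by acoustic transfer into modified Tris assay buffer.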

[3] = Homo sapiens, MDA-MB-436, 168 h

T1 sequence (O94782 whole entry): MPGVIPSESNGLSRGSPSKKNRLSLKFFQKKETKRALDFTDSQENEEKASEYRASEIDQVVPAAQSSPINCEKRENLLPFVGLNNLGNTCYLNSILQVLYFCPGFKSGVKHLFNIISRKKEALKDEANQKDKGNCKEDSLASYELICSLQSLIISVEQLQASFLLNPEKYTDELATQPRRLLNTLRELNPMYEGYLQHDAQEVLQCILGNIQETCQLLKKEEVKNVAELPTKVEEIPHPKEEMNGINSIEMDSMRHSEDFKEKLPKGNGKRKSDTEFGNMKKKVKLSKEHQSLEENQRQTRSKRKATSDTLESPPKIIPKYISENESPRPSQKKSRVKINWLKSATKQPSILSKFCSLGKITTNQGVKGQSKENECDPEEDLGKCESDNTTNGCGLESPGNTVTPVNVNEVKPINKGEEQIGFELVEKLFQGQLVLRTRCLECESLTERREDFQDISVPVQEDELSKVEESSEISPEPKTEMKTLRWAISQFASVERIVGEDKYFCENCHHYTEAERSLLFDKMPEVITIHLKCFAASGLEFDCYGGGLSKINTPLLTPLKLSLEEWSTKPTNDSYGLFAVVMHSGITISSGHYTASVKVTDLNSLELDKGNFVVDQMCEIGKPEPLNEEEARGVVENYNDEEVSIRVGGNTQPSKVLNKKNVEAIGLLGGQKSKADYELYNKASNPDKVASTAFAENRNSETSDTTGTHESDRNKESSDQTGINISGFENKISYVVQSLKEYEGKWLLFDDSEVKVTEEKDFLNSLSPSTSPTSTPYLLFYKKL
T1 sequence (Q8TAF3 whole entry partner): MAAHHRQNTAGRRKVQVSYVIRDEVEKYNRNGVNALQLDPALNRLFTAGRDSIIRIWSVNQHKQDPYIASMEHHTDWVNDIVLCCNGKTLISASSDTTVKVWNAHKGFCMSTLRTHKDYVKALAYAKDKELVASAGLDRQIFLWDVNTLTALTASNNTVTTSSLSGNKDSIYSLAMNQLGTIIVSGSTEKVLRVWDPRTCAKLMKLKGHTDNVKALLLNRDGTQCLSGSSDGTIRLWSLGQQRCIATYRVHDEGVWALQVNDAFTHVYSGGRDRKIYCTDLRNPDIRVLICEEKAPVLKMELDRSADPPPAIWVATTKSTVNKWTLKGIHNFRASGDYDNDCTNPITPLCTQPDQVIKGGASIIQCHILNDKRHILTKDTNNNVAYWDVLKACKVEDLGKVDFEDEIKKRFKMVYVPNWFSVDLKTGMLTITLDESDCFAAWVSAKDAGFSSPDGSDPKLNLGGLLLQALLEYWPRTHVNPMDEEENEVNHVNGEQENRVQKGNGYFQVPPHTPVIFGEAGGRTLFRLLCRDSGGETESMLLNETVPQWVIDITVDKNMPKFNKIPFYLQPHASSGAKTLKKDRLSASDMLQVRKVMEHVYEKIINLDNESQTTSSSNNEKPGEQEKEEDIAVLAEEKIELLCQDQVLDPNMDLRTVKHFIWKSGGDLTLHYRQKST

| Compound | IC50 [1, 3] [nM] | IC50 [2] [nM] | IC50 [1] [nM] |
| --- | --- | --- | --- |
| COc1cnc(-c2c(OC)ncnc2C2CC2F)nc1NCC12CCC(c3nc(C(F)(F)F)cn3C)(CC1)CC2 (stereo not shown) [Example S18, 4'-(2-Fluorocyclopropyl)-5,6'-dimethoxy-N-((4-(1-methyl-4-(trifluoromethyl)-1 H-imidazol-2-yl)bicyclo[2.2.2]oct-1-yl)methyl)-[2,5'-bipyrimidin]-4-amine] | 10.7 | 12 |  |
| [2H]C([2H])([2H])N(C[C@H]1CC[C@H](c2nc(C(F)(F)F)cn2C)CC1)c1nc(-c2c(OC)ncnc2C2CC2)ncc1OC [Example S22, 4'-Cyclopropyl-5,6'-dimethoxy-N-(methyl-d3)-N-(((1r,4r)-4-(1-methyl-4-(trifluoromethyl)-1H-imidazol-2-yl)cyclohexyl)methyl)-[2,5'-bipyrimidin]-4-amine] | 4.5 | 4.6 |  |
| [2H]C([2H])([2H])Oc1ncnc(C2CC2)c1-c1ncc(OC)c(N(C[C@H]2CC[C@H](c3nc(C(F)(F)F)cn3C)CC2)C([2H])([2H])[2H])n1 [Example S24, 4'-Cyclopropyl-5-methoxy-6'-(methoxy-D3)-N-(methyl-D3)-N(((1R,4R)-4-(1-methyl-4-(trifluoromethyl)-1H-imidazol-2-yl)cyclohexyl)methyl)-[2,5'-bipyrimidin]-4-amine] | 4.6 | 5.7 |  |
| COc1cnc(-c2c(C)ncnc2OC2CC2)nc1N(C)C[C@H]1CC[C@H](c2nc(C(F)(F)F)cn2C)CC1 [Example S32] | 235 | 106 |  |
| COc1cnc(-c2c(OC)ncnc2C2CC2F)nc1N(C)C[C@H]1CC[C@H](c2nc(C(F)(F)F)cn2C)CC1 (stereo partly shown) [Example S35] | 3.5 | 6.8 |  |
| COc1cnc(-c2c(OC)ncnc2C(F)(F)F)nc1N(C)C[C@H]1CC[C@H](c2nc(C(F)(F)F)cn2C)CC1 [Example S36, 4',5-Dimethoxy-N-methyl-N-(((1R,4R)-4-(1-methyl-4-(trifluoromethyl)-1H-imidazol-2-yl)cyclohexyl)methyl)-6'-(trifluoromethyl)-[2,5'-bipyrimidin]-4-amine] | 1.8 | 7.1 |  |
| COc1cnc(-c2c(OC)ncnc2C(F)(F)F)nc1N(C)C[C@H]1CC[C@H](c2nc(C(F)(F)F)cn2C(C)C)CC1 [Example S37, N-(((1R,4R)-4-(1-isopropyl-4-(trifluoromethyl)-1H-imidazol-2-yl)cyclohexyl)methyl)-4',5-dimethoxy-N-methyl-6'-(trifluoromethyl)-[2,5'-bipyrimidin]-4-amine] | 32.6 | 12 |  |
| COc1cnc(-c2cccnc2C(C)C)nc1NCC12C3C4C1C1C2C3C41c1nc(C(F)(F)F)cn1C (stereo not shown) [Example S42, 2-(2-isopropylpyridin-3-yl)-5-methoxy-N-((4-(1-methyl-4-(trifluoromethyl)-1H-imidazol-2-yl)cuban-1-yl)methyl)pyrimidin-4-amine] | 3.5 | 1.2 |  |
| COc1cnc(-c2c(OC)ncnc2C2CC2)nc1N(C#N)CC12CCC(c3nc(C(F)(F)F)cn3C)(CC1)CC2 [Example S43] | 12.1 | 6.9 |  |
| COc1cnc(-c2c(OC)ncnc2C2CC2(F)F)nc1N(C)CC1CCC(c2nc(C(F)(F)F)cn2C)CC1 [Example S49, 4'-(2,2-difluorocyclopropyl)-5,6'-dimethoxy-N-methyl-N-((1R,4R)-4-(1-methyl-4-(trifluoromethyl)-1H-imidazol-2-yl)cyclohexyl)methyl)-[2,5'-bipyrimidin]-4-amine] | 0.7 | 3.1 |  |
| COc1cnc(-c2c(OC)ncnc2C2CC2)nc1N(C)CC12C3C4C1C1C2C3C41c1nc(C(F)(F)F)cn1C (stereo not shown) [Example S51, 4'-cyclopropyl-5,6'-dimethoxy-N-methyl-N-((4-(1-methyl-4-(trifluoromethyl)-1H-imidazol-2-yl)cuban-1-yl)methyl)-[2,5'-bipyrimidin]-4-amine] |  | 3.8 | 5.8 |

Next, values leading:

| IC50 [1, 3] [nM] | IC50 [2] [nM] | IC50 [1] [nM] | Compound |
| --- | --- | --- | --- |
| 21.4 | 19 |  | COc1cnc(-c2c(OC)ncnc2C2CC2)nc1NC[C@H]1CC[C@H](c2nc(C(F)(F)F)cn2C)CC1 [Example S20] |
| 4.7 | 6 |  | COc1cnc(-c2c(OC)ncnc2C2CC2)nc1N(C)C[C@H]1CC[C@H](c2nc(C(F)(F)F)cn2C)CC1 [Example S21] |
| 0.1 | 4.8 |  | [2H]C([2H])([2H])N(C[C@H]1CC[C@H](c2nc(C(F)(F)F)cn2C2CC2)CC1)c1nc(-c2c(OC)ncnc2C2CC2)ncc1OC [Example S23, 4'-Cyclopropyl-N-(((1R,4R)-4-(1-cyclopropyl-4-(trifluoromethyl)-1H-imidazol-2-yl)cyclohexyl)methyl)-5,6'-dimethoxy-N-(methyl-D3)-[2,5'-bipyrimidin]-4-amine] |
| 14.3 | 13 |  | COc1cnc(-c2c(OC)ncnc2C2CC2)nc1N(C)C[C@H]1CC[C@H](c2nc(C(F)(F)F)cn2C(C)C)CC1 [Example S26, 4'-Cyclopropyl-N-(((1R,4R)-4-(1-isopropyl-4-(trifluoromethyl)-1H-imidazol-2-yl)cyclohexyl)methyl)-5,6'-dimethoxy-N-methyl-[2,5'-bipyrimidin]-4-amine] |
| 338 | 15 |  | COc1cnc(-c2c(OC)ncnc2OC)nc1NC[C@H]1CC[C@H](c2nc(C(F)(F)F)cn2C2CC2)CC1 [Example S29, N-(((1R,4R)-4-(1-cyclopropyl-4-(trifluoromethyl)-1H-imidazol-2-yl)cyclohexyl)methyl)-4',5,6'-trimethoxy-[2,5'-bipyrimidin]-4-amine] |
| 31.9 | 12 |  | COc1cnc(-c2c(OC)ncnc2OC)nc1N(C)C[C@H]1CC[C@H](c2nc(C(F)(F)F)cn2C2CC2)CC1 [Example S30, N-(((1R,4R)-4-(1-cyclopropyl-4-(trifluoromethyl)-1H-imidazol-2-yl)cyclohexyl)methyl)-4',5,6'-trimethoxy-N-methyl-[2,5'-bipyrimidin]-4-amine] |

Source: patent EP4741386A1 (Jiangsu Yahong Meditech Co., Ltd., priority 2023, dated 2025)
